Values quoted from earlier work, collected in patent publication US20020039567A1, “Methods of treating bone or cartilage conditions by the administration of creatine” (priority 1998, published 2002).

Assays:
[1] = system: chick limb bud mesenchymal cells; details: cited from earlier work; for mineralization: addition of 1 and 2 mM ATP or 2 mM PCr; for rate of cell proliferation, rate of matrix synthesis, mean crystallite length, rate of mineral deposition: contrasted with cultures supplemented with inorganic phosphate
[2] = system: CK activity in rat epiphyseal cartilage cells; details: cited from earlier work
[3] = system: CK activity in chondroblasts and osteoblasts; details: cited from earlier work
[4] = system: embryonic chick femora; details: cited from earlier work
[5] = system: SaOS-2 cells; details: cited from earlier work

Compound: Nc1ncnc2c1ncn2[C@@H]1O[C@H](COP(=O)(O)OP(=O)(O)OP(=O)(O)O)[C@@H](O)[C@H]1O [ATP]
- mineralization [1]: promoted
- rate of cell proliferation, rate of matrix synthesis, mean crystallite length, rate of mineral deposition [1]: does not alter

Compound: C[C@]12CC[C@@H]3c4ccc(O)cc4CC[C@H]3[C@@H]1CC[C@@H]2O [E2, 17b-estradiol]
- increase in CK activity [2]: 40%

Compound: CC/C(=C(\c1ccccc1)c1ccc(OCCN(C)C)cc1)c1ccccc1 [tamoxifen]
- effect of tamoxifen by itself ([3]; high concentrations): stimulatory effects
- effect of E2 in presence of tamoxifen ([3]; high levels of tamoxifen): inhibited

Compound: phosphocreatine [PCr]
- perichondral ossification in the diaphysis ([4]; 0.1 mM in chick embryo extract with 20% horse serum): accelerated
- deposition of calcium in the cartilage matrix of the epiphysis ([4]; very crude preparations at 0.1 mM in chick embryo extract with 20% horse serum): accelerated
- mineralization [1]: promoted
- rate of cell proliferation, rate of matrix synthesis, mean crystallite length, rate of mineral deposition [1]: does not alter
- alkaline phosphatase (ALP) activity [5]: increases
